From patent publication US20140073700A1, “[…] ACID DERIVATIVES AND METHODS OF USE THEREOF” (AbbVie Inc., priority 2012, published 2014)
pIC50: −log10 of the molar value.

tested on: IFNγ-Induced NO Production in RAW 264.7 cells; test: Nitric Oxide Suppression Assay (suppression of IFNγ-induced NO production); format: cell-based; conditions: RAW264.7; RAW 264.7 mouse macrophage cells, 20 ng/mL interferon gamma, Griess detection; single curve fit to mean data of n=2-3
Experimental: RAW 264.7, a mouse macrophage cell line, was obtained from American Type Culture Collection (Manassas Va.) and maintained in the log phase of growth in Dulbecco's Modified Eagle's Medium (DMEM), 10% heat inactivated fetal calf serum and 100 units/mL antibiotic-antimycotic (AA). Cells were cultured and maintained in a humidified incubator at 37° C. under 5% CO2 and 95% air. Cells were sub-cultured every 3 days by scraping and were not used beyond passage 20. All cell culture supplies were obtained from Life Technologies (Grand Island, N.Y.).
RAW 264.7 cells were plated 1 day in advance of experiment at a concentration of 80,000 cells/well onto CellBIND® 96 well plates (Corning, N.Y.) in a total volume of 100 μL. The next day, pre-treat cells with compounds (from 3 μM to 0.3 nM serially diluted in a 10 point curve) from a 10× stock by adding 10 μL per well in complete DMEM media containing 10% fetal calf serum. The plates were centrifuged for 3 minutes at 400×g at room temperature followed by 2 hour incubation at 37° C. The cells were then incubated overnight at 37° C. with 10 μL of the insult, interferon gamma (R&D Systems, Minneapolis, Minn.), from a 10× stock for a final concentration of 20 ng/mL. The plates were centrifuged for 3 minutes at 400×g at room temperature followed by 18 hour incubation at 37° C. The following day, transfer 50 μL cell culture supernatant from each well into a clear bottom 96 well plate and follow the instructions from Promega's Griess Detection Kit #G2930 (Madison, Wis.) which involves the addition of 50 μL of the provided sulfanilamide solution for a 5-10 minute incubation at room temperature. Next add 50 μL of the provided N-1-napthylethylenediamine dihydrochloride (NED) solution for a 5-10 minute incubation at room temperature and protected from light. If any air bubbles were introduced into the well, the plates need to be centrifuged for 5 minutes at 400×g at room temperature to avoid interference with absorbance readings. The plates were read for absorbance within 30 minutes with a filter between 520 nm and 550 nm.
For the ability of compounds to suppress the increase in nitric oxide release, the percent maximal intensity of nitric oxide detected in each well was normalized to that induced by the peak value for 20 ng/mL of interferon gamma alone and plotted against the compound concentration to calculate IC50 values and to control for plate-to-plate variability. Concentration-response data were analyzed using GraphPad Prism (San Diego, Calif.); the IC50 values were derived from a single curve fit to the mean data of n=2-3, in duplicates.
All compounds were dissolved in dimethyl sulfoxide at 10 mM stock solutions and tested at a concentration that the dimethyl sulfoxide levels never exceeded 1%.

| Compound | pIC50 |
| --- | --- |
| CC1(C)C(=O)C(C#N)=C[C@]2(C)C3=CC(=O)[C@]4(O)[C@@H]5C[C@@](C)(C(=O)NCc6ccno6)CC[C@]5(C)CC[C@@]4(C)[C@]3(C)CC[C@@H]12 [Example 30, (2S,4aS,6aS,6bR,8aR,12aS,14aS,14bR)-11-cyano-14a-hydroxy-2,4a,6a,6b,9,9,12a-heptamethyl-N-(1,2-oxazol-5-ylmethyl)-10,14-dioxo-1,2,3,4,4a,5,6,6a,6b,7,8,8a,9,10,12a,14,14a,14b-octadecahydropicene-2-carboxamide] | 7.91 |
| CC1(C)C(=O)C(C#N)=C[C@]2(C)C3=CC(=O)[C@]4(O)[C@@H]5C[C@@](C)(C(=O)N6CCCC6)CC[C@]5(C)CC[C@@]4(C)[C@]3(C)CC[C@@H]12 [Example 31, (4aR,6aR,6bS,8aS,11S,12aR,12bS,14bS)-12b-hydroxy-4,4,6a,6b,8a,11,14b-heptamethyl-3,13-dioxo-11-(pyrrolidin-1-ylcarbonyl)-3,4,4a,5,6,6a,6b,7,8,8a,9,10,11,12,12a,12b,13,14b-octadecahydropicene-2-carbonitrile] | 7.71 |
| CC(C)CNC(=O)[C@@]1(C)CC[C@]2(C)CC[C@@]3(C)[C@]4(C)CC[C@H]5C(C)(C)C(=O)C(C#N)=C[C@]5(C)C4=CC(=O)[C@]3(O)[C@@H]2C1 [Example 32, (2S,4aS,6aS,6bR,8aR,12aS,14aS,14bR)-11-cyano-14a-hydroxy-N-isobutyl-2,4a,6a,6b,9,9,12a-heptamethyl-10,14-dioxo-1,2,3,4,4a,5,6,6a,6b,7,8,8a,9,10,12a,14,14a,14b-octadecahydropicene-2-carboxamide] | 8.06 |
| CCC(C)CNC(=O)[C@@]1(C)CC[C@]2(C)CC[C@@]3(C)[C@]4(C)CC[C@H]5C(C)(C)C(=O)C(C#N)=C[C@]5(C)C4=CC(=O)[C@]3(O)[C@@H]2C1 (stereo partly drawn) [Example 33, (2S,4aS,6aS,6bR,8aR,12aS,14aS,14bR)-11-cyano-14a-hydroxy-2,4a,6a,6b,9,9,12a-heptamethyl-N-(2-methylbutyl)-10,14-dioxo-1,2,3,4,4a,5,6,6a,6b,7,8,8a,9,10,12a,14,14a,14b-octadecahydropicene-2-carboxamide] | 7.36 |
| COCCNC(=O)[C@@]1(C)CC[C@]2(C)CC[C@]3(C)[C@H](C(=O)C=C4[C@@]5(C)C=C(C#N)C(=O)C(C)(C)[C@@H]5CC[C@]43C)[C@@H]2C1 [Example 34, (2S,4aS,6aR,6bS,8aR,12aS,14aR,14bS)-11-cyano-N-(2-methoxyethyl)-2,4a,6a,6b,9,9,12a-heptamethyl-10,14-dioxo-1,2,3,4,4a,5,6,6a,6b,7,8,8a,9,10,12a,14,14a,14b-octadecahydropicene-2-carboxamide] | 8.52 |
| CC1(C)C(=O)C(C#N)=C[C@]2(C)C3=CC(=O)[C@@H]4[C@@H]5C[C@@](C)(C(=O)NCc6ccco6)CC[C@]5(C)CC[C@@]4(C)[C@]3(C)CC[C@@H]12 [Example 35, (2S,4aS,6aR,6bS,8aR,12aS,14aR,14bS)-11-cyano-N-(2-furylmethyl)-2,4a,6a,6b,9,9,12a-heptamethyl-10,14-dioxo-1,2,3,4,4a,5,6,6a,6b,7,8,8a,9,10,12a,14,14a,14b-octadecahydropicene-2-carboxamide] | 7.86 |
| CC1(C)C(=O)C(C#N)=C[C@]2(C)C3=CC(=O)[C@@H]4[C@@H]5C[C@@](C)(C(=O)NC6CCCCC6)CC[C@]5(C)CC[C@@]4(C)[C@]3(C)CC[C@@H]12 [Example 36, (2S,4aS,6aR,6bS,8aR,12aS,14aR,14bS)-11-cyano-N-cyclohexyl-2,4a,6a,6b,9,9,12a-heptamethyl-10,14-dioxo-1,2,3,4,4a,5,6,6a,6b,7,8,8a,9,10,12a,14,14a,14b-octadecahydropicene-2-carboxamide] | 6.85 |
| COCC(COC)NC(=O)[C@@]1(C)CC[C@]2(C)CC[C@]3(C)[C@H](C(=O)C=C4[C@@]5(C)C=C(C#N)C(=O)C(C)(C)[C@@H]5CC[C@]43C)[C@@H]2C1 [Example 37, (2S,4aS,6aR,6bS,8aR,12aS,14aR,14bS)-11-cyano-N-(1,3-dimethoxypropan-2-yl)-2,4a,6a,6b,9,9,12a-heptamethyl-10,14-dioxo-1,2,3,4,4a,5,6,6a,6b,7,8,8a,9,10,12a,14,14a,14b-octadecahydropicene-2-carboxamide] | 7.80 |
| Cn1cc(CNC(=O)[C@@]2(C)CC[C@]3(C)CC[C@]4(C)[C@H](C(=O)C=C5[C@@]6(C)C=C(C#N)C(=O)C(C)(C)[C@@H]6CC[C@]54C)[C@@H]3C2)cn1 [Example 38, (2S,4aS,6aR,6bS,8aR,12aS,14aR,14bS)-11-cyano-2,4a,6a,6b,9,9,12a-heptamethyl-N-[(1-methyl-1H-pyrazol-4-yl)methyl]-10,14-dioxo-1,2,3,4,4a,5,6,6a,6b,7,8,8a,9,10,12a,14,14a,14b-octadecahydropicene-2-carboxamide] | 8.17 |
| CC1(C)C(=O)C(C#N)=C[C@]2(C)C3=CC(=O)[C@@H]4[C@@H]5C[C@@](C)(C(=O)NCc6cnco6)CC[C@]5(C)CC[C@@]4(C)[C@]3(C)CC[C@@H]12 [Example 39, (2S,4aS,6aR,6bS,8aR,12aS,14aR,14bS)-11-cyano-2,4a,6a,6b,9,9,12a-heptamethyl-N-(1,3-oxazol-5-ylmethyl)-10,14-dioxo-1,2,3,4,4a,5,6,6a,6b,7,8,8a,9,10,12a,14,14a,14b-octadecahydropicene-2-carboxamide] | 8.24 |
| COC(=O)[C@]12CCC(C)(C)C[C@H]1[C@H]1C(=O)C=C3[C@@]4(C)C=C(C#N)C(=O)C(C)(C)[C@@H]4CC[C@@]3(C)[C@]1(C)CC2 [bardoxolone methyl, reference compound] | 7.54 |
